# Results published in patent US20180215734A1, “PYRIMIDINE DERIVATIVES AS KINASE INHIBITORS AND THEIR THERAPEUTICAL APPLICATIONS” (NantBioScience, Inc., priority 2016, published 2018).
# How the values were obtained:
# [1] = Metabolic stability, human liver microsomes; format: in vitro ADME
# [2] = target: Ret(h) (Homo sapiens, UniProt P07949); test: Kinase assay, Ret(h); format: biochemical
# [3] = target: Flt3(h) (Homo sapiens, UniProt P36888); test: Kinase assay, Flt3(h); format: biochemical
# [4] = target: T1, FGFR1 (Homo sapiens, UniProt P11362); test: BaF3 cells engineered for expression of FGFR1; format: cell-based; settings: read-out: IC5o(nM) FGFR1
# T1 construct: expressed in transfected cells; host or cells: BaF3
# T1 sequence (P11362 22-822, species assumed): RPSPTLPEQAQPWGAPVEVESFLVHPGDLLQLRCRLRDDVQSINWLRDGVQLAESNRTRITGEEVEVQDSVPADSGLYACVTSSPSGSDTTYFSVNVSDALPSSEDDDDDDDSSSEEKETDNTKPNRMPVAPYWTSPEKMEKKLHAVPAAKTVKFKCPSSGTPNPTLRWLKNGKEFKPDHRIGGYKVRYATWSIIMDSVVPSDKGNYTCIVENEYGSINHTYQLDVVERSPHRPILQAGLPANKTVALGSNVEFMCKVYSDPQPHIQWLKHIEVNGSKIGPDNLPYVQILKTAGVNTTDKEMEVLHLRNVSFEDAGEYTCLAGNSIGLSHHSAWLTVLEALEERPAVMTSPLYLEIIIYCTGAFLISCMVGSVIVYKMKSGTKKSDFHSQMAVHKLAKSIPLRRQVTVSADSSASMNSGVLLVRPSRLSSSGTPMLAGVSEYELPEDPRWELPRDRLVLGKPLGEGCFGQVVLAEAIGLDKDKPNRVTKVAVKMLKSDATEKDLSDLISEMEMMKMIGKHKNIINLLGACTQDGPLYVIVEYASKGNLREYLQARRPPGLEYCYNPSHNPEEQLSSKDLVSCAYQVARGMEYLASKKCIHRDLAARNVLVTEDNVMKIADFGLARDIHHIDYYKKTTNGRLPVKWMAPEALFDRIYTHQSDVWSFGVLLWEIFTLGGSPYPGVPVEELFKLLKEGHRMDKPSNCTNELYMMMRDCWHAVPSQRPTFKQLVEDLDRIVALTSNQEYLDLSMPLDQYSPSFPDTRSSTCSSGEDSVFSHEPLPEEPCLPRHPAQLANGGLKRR
# From the text: (§1) In FIG. 1 these kinases are from the fibroblast growth factor receptor class of kinases (FGFR1-FGFR4). Compound 19 kinase inhibitory activity FGFR1-FGFR4 are also depicted in Table 5.
# [5] = target: FGFR2(N549H)(h) (Homo sapiens, UniProt P21802, N549H); test: Kinase assay, FGFR2(N549H)(h); format: biochemical
# Chain of FGFR2(N549H)(h) (P21802 22-821 N549H): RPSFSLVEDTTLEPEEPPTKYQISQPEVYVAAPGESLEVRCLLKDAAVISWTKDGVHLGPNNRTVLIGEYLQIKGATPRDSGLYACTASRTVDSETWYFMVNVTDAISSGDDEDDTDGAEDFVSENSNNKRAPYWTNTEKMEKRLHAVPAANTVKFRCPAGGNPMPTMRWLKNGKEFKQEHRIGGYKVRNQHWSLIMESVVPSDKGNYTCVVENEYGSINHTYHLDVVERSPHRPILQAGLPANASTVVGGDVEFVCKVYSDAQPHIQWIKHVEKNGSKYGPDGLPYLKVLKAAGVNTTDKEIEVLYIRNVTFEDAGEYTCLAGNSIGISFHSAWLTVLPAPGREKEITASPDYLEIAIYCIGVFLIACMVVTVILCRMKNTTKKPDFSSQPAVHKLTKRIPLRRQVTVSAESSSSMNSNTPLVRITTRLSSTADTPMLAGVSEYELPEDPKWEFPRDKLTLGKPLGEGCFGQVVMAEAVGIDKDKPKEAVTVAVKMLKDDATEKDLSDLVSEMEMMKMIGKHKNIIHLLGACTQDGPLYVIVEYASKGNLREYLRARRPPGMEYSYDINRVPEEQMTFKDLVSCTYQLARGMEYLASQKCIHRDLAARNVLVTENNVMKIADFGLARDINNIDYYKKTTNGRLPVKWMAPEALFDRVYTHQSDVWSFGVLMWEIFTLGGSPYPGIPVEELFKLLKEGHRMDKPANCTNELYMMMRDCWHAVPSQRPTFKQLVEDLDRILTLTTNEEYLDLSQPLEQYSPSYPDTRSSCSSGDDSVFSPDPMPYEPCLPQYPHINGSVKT
# [6] = target: CYP450 2C9 (Homo sapiens, UniProt P11712); test: CYP450 inhibition, 2C9; format: in vitro ADME
# Chain of CYP450 2C9 (P11712 whole entry): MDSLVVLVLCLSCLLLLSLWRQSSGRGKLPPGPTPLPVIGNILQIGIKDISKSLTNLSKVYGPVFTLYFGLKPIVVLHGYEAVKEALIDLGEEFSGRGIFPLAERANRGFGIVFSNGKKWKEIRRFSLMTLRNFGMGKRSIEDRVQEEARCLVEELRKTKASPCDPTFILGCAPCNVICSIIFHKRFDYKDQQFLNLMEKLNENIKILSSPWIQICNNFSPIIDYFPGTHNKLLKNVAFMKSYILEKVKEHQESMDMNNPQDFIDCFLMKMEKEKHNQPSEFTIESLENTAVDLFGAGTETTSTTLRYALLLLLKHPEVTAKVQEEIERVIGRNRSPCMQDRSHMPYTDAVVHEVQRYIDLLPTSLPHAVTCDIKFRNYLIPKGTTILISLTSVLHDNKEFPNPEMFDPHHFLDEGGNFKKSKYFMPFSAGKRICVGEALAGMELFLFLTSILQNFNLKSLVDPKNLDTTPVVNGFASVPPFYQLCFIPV
# From the text: (§2) Table 9 discloses toxicity data for compound 19 from various toxicity tests well known to those of ordinary skill.
# [7] = Metabolic stability, rat liver microsomes; format: in vitro ADME
# [8] = target: FGFR2(h) (Homo sapiens, UniProt P21802); test: Kinase assay, FGFR2(h); format: biochemical
# Chain of FGFR2(h) (P21802 22-821): as the sequence (P21802 22-821 N549H) above, with H528N counted along it
# [9] = Pharmacokinetic profile in rats; format: in vivo; settings: Rat
# From the text: Compound 19's pharmacokinetic profile is consistent with Compound 19 being used as a therapeutic agent.
# [10] = target: ALK(h) (Homo sapiens, UniProt Q9UM73); test: Kinase assay, ALK(h); format: biochemical
# [11] = Metabolic stability, mouse liver microsomes; format: in vitro ADME
# [12] = target: CYP450 2D6 (Homo sapiens, UniProt P10635); test: CYP450 inhibition, 2D6; format: in vitro ADME
# From the text: as §2
# [13] = target: FGFR1(h) (Homo sapiens, UniProt P11362); test: Kinase assay, FGFR1(h); format: biochemical
# Chain of FGFR1(h) (P11362 22-822): as the sequence (P11362 22-822, species assumed) above
# Protocol: Kinase assay protocols well known to those of ordinary skill in the art were used. Specifically, the buffer composition was as follows: 20 mM MOPS, 1 mM EDTA, 0.01% Brij-35, 5% Glycerol, 0.1% β-mercaptoethanol, 1 mg/mL BSA. Test compounds were initially dissolved in DMSO at the desired concentration, then serially diluted to the kinase assay buffer. In a final reaction volume of 25 μL FGFR1(h) (5-10 mU) and KDR(h) (5-10 mU) are incubated with 8 mM MOPS pH 7.0, 0.2 mM EDTA, 200 μM LRRASLG (Kemptide), 10 mM magnesium acetate and [γ^33P-ATP]. The reaction was initiated by the addition of the MgATP mix. After incubation for 40 minutes at room temperature, the reaction was stopped by addition of 5 μL of a 3% phosphoric acid solution. Ten L of the reaction was then spotted onto a P30 filter mat and washed three times for 5 minutes in 50 mM phosphoric acid and once in methanol prior to drying and scintillation counting. Wells containing substrate but no kinase and wells containing a phosphopeptide control were used to set 0% and 100% phosphorylation value, respectively.
# Of all of the steps in developing a drug, the hardest is finding promising compounds. (See, e.g., Malo et al., “Statistical practice in high-throughput screening data analysis,” Nature Biotechnology, 2006, 24, 167-75.) Kinase inhibitors often also have an anti-proliferative effect. […] The kinase inhibitory activity Compound 19 was tested using the kinase assay described in Example 3. […] These mutations in the tested kinases are thought to play an important role in transformation of some cancers.
# [14] = system: TG1a Human AML Xenograft; test: Antitumor efficacy on TG1a human AML xenograft; format: in vivo, mouse
# Protocol: In this Example the antitumor activity of compounds 14, 17, 19, 45, and 48 of the current invention are tested using an art-recognized xenograft model of AML. (“T/C” refers to the ratio of the tumor's size in treated animals versus the tumor size in control untreated animals. “BWC” refers to “body weight change”).
# [15] = target: IGF-1R(h) (Homo sapiens, UniProt P08069); test: Kinase assay, IGF-1R(h); format: biochemical
# [16] = target: T2, FGFR3 (Homo sapiens, UniProt P22607); test: BaF3 cells engineered for expression of FGFR3; format: cell-based; settings: read-out: IC5o(nM) FGFR3
# T2 construct: expressed in transfected cells; host or cells: BaF3
# T2 sequence (P22607 23-806, species assumed): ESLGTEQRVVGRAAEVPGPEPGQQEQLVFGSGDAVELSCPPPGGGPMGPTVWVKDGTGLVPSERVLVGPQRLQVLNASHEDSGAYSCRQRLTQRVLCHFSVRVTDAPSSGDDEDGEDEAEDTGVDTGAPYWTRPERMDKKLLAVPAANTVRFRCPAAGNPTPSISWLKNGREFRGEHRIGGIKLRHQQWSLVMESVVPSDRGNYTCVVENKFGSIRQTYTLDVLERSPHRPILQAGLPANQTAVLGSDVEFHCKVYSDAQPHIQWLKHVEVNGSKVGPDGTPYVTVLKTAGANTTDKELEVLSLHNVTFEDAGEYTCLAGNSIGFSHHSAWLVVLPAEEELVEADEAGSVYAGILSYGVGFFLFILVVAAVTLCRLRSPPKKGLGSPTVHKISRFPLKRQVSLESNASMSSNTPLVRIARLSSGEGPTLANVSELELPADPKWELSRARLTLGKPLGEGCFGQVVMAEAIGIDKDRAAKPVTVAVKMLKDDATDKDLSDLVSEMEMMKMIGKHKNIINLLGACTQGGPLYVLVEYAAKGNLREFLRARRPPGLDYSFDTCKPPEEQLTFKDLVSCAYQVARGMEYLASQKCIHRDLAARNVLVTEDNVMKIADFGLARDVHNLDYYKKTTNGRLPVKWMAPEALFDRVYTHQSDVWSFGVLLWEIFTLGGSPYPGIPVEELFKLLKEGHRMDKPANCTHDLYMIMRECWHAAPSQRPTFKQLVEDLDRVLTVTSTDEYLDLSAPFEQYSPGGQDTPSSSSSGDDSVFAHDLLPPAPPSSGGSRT
# From the text: as §1
# [17] = target: T3, FGFR2 (Homo sapiens, UniProt P21802); test: BaF3 cells engineered for expression of FGFR2; format: cell-based; settings: read-out: IC5o(nM) FGFR2
# T3 construct: expressed in transfected cells; host or cells: BaF3
# T3 sequence (P21802 22-821, species assumed): as the sequence (P21802 22-821 N549H) above, with H528N counted along it
# From the text: as §1
# [18] = target: Met(h) (Homo sapiens, UniProt P08581); test: Kinase assay, Met(h); format: biochemical
# [19] = target: Aurora-A (h) (Homo sapiens, UniProt O14965); test: Kinase assay, Aurora-A (h); format: biochemical
# Chain of Aurora-A (h) (O14965 whole entry): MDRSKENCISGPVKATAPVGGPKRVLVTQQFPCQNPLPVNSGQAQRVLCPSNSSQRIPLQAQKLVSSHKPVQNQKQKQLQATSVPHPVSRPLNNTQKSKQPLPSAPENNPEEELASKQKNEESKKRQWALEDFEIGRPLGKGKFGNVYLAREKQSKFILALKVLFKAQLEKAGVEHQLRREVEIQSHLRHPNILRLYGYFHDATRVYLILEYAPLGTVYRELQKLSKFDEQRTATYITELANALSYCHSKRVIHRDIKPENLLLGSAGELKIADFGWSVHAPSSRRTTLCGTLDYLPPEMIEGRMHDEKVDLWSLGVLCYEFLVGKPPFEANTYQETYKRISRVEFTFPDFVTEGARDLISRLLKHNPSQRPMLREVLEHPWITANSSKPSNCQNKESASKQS
# [20] = target: hERG (Homo sapiens, UniProt Q12809); test: Cardiovascular toxicity, hERG
# From the text: as §2
# [21] = target: cSRC(h) (Homo sapiens, UniProt P12931); test: Kinase assay, cSRC(h); format: biochemical
# Chain of cSRC(h) (P12931 whole entry): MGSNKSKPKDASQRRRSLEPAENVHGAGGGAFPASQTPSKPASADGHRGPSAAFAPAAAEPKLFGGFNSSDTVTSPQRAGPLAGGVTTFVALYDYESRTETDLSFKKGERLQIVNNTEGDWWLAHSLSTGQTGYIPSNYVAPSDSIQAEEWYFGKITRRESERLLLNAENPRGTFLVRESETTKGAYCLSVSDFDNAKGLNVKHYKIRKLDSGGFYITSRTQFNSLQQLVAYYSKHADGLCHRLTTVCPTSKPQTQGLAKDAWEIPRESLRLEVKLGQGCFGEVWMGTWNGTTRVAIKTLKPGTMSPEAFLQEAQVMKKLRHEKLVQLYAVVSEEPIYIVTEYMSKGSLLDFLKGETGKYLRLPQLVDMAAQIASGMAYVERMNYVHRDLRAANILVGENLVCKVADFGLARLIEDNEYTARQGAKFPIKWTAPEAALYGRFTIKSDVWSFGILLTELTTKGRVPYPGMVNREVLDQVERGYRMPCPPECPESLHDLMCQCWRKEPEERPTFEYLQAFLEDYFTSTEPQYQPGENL
# [22] = target: Flt4(h) (Homo sapiens, UniProt P35916); test: Kinase assay, Flt4(h); format: biochemical
# Chain of Flt3(h) (P36888 27-993): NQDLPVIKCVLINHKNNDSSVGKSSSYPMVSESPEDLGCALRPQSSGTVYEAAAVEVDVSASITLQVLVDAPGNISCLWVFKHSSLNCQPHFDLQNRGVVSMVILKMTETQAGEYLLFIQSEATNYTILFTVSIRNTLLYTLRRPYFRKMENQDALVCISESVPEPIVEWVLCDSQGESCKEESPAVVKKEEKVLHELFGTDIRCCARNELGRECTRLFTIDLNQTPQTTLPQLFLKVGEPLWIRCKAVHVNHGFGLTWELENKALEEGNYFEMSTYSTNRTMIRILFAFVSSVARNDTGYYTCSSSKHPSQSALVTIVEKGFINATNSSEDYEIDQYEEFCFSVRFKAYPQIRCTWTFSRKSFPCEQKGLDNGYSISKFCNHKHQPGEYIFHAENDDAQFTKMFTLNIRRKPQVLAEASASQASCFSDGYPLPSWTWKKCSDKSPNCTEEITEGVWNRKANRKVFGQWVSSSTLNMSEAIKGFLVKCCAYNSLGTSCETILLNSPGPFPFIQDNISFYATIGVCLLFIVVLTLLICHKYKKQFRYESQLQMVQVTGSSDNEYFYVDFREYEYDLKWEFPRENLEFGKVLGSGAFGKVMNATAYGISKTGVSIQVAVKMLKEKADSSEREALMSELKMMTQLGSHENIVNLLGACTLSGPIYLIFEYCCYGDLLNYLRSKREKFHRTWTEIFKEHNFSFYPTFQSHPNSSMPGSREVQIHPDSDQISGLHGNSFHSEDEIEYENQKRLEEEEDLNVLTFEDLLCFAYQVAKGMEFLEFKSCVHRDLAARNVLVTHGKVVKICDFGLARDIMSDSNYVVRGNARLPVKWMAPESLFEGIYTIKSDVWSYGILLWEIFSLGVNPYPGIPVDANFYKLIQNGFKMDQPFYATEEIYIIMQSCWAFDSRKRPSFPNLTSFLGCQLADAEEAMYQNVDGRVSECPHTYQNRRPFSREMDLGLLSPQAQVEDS
structure (smiles),measurement,setting,value
Cc1cc2c(F)c(Oc3ncnc(Nc4ccc(N5C[C@@H](C)N[C@@H](C)C5)cc4)c3C#N)cc(F)c2[nH]1 [Compound 19],half-life,[1],> 1 h
same,IC50,[2],> 1000 nM
same,IC50,[3],> 1000 nM
same,IC50,[4],11.4 nM
same,IC50,[5],7 nM
same,IC50,[6],32900 nM
same,half-life,[7],> 1 h
same,IC50,[8],11 nM
same,Oral Bioavailability (% F),[9]; PO 5 mg/Kg,76 % F
same,clearance,"[9]; in vivo, IV 1 mg/Kg",17.6 mL/min/kg
same,half-life,"[9]; in vivo, IV 1 mg/Kg, read-out: Terminal Half Life (converted)",6.81 h
same,Vd,"[9]; in vivo, IV 1 mg/Kg, read-out: Vz",9.54 L/kg
same,IC50,[10],> 1000 nM
same,half-life,[11],> 1 h
same,IC50,[12],> 100000 nM
same,IC50,[13],0.9 nM
same,inhibition at 1 µM,[13]; 1 μM,100%
same,BWC (%),"[14]; 5 mg/kg, Qdx10, IP",−4.1%
same,T/C (%) (day14),"[14]; 5 mg/kg, Qdx10, IP",−69.7%
same,BWC (%),"[14]; 10 mg/kg, Qdx10, IP",−6.3%
same,T/C (%) (day14),"[14]; 10 mg/kg, Qdx10, IP",−83.7%
same,BWC (%) (d7),"[14]; 20 mg/kg, Qdx10, IP, d7",−26.2%
same,T/C (%) (day7),"[14]; 20 mg/kg, Qdx10, IP, day7",−68.7%
same,Weight loss in dose-response study (FIGS. 4 and 5),"[14]; highest dose, 20 mg/kg",significant weight loss
same,IC50,[15],> 1000 nM
same,IC50,[16],32.6 nM
same,IC50,[17],17.6 nM
same,IC50,[18],> 1000 nM
same,IC50,[19],> 1000 nM
same,IC50,[20],> 30000 nM
same,IC50,[21],> 1000 nM
same,IC50,[22],116 nM
